# Measurements: patent US20180228799A1, “Treatment for Neurological and Mental Disorders” (PSYCHOGENICS, INC., priority 2008, published 2018)
# “Also recorded” adds a separate entry of the source.
# Columns and labels:
# mice = assay: Timing/Peak Procedure operant test (attention, impulsivity); assay type: in vivo; conditions: 0.1 mg/kg IP, FIG. 1
# From the text: The Timing/Peak Procedure test is an operant test in which mice are trained to respond to a food reward at a fixed time interval of 30 sec. Mice learn to increase their responding around the 30 sec time period. This test assesses impulsivity, attention and timing perception. A high peak of responding at the 30 sec interval and narrow spread are signatures of the animal's improved attention and time perception.
# In brief, mice were placed in a chamber and trained to lever press for food. After training, animals learn to respond after a fixed interval of 30 sec has elapsed as only this fixed interval response produces a reward. With reinforcement delivery the lever is retracted and an inter-trial-interval commences. Once the animal was trained on the reinforced trials, “peak trials” or unreinforced trials are introduced and intermixed with reinforced trials. During these empty trials, no responses were reinforced and the trial lasts for 120 sec (i.e., the lever is extended but reinforcement is not presented). After the 120 sec elapses, the trial terminated, the lever was retracted and the inter-trial-interval started as before. The animals therefore learned that if after a period of 30 sec, no food has been presented there will be no reinforcement delivery until the lever is retracted and the trial starts again.
# To perform well on this task, animals need to learn an association between a response (lever pressing) and the delivery of reinforcement (condensed milk), they need to perceive and remember time, they need to act on the remembered time by responding or by inhibiting a response and finally they need to compare the elapsed time during a trial with their memory for the time for reinforcement. A true cognitive enhancer therefore should decrease responding after reinforcement time, without affecting the peak time, i.e., sharpening the curve and reducing the spread in the response curve. A sharpened curve is indicative of heightened attentional processes.
# [1] = test system: symptoms of ADHD in adults; assay: ADHD-RS-IV, double-blind placebo-controlled crossover trial in adults with ADHD; assay type: in vivo, human; conditions: for ADHD-RS-IV Inattention subscale, Baseline Score / ADHD-RS-IV Hyperactivity subscale, Baseline Score / ADHD-RS-IV Impulsivity subscale, Baseline Score / ADHD-RS-IV Total score, Baseline Score: before treatment
# Protocol: The primary objective of this study was to compare the effects of two doses of eltoprazine with placebo on symptoms of ADHD in adults. The primary efficacy parameter is the Attention-Deficit/Hyperactivity Disorder Rating Scale-IV (ADHD-RS-IV).
# This double-blind, multiple-dose, placebo-controlled, crossover study was conducted to assess the effects of 14 days of oral eltoprazine treatment in 48 adults with ADHD. Subjects eligible for study enrollment were to have met Diagnostic and Statistical Manual of Mental Disorders, Fourth Edition, Text Revision (DSM-IV-TR) criteria for ADHD. Assessment was to be made by clinical history, a Structured Clinical Interview for DSM-IV Axis Disorders-Research Version (SCID-RV), and a Conners' Adult ADHD Diagnostic Interview for DSM IV (CAADID).
# Oral doses of eltoprazine hydrochloride were 5 mg/day or 10 mg/day for 14 consecutive days (i.e., 2.5 or 5 mg twice daily (bid), respectively). Eltoprazine hydrochloride was administered in gelatin capsules with calcium hydrogen phosphate, 2H2O, maize starch NF, polyethylene glycol 6000 NF and magnesium stearate NF as excipients.
# Primary endpoints were evaluated with the ADHD-RS-IV. After 14 days of treatment with placebo, 5 mg/day, or 10 mg/day eltoprazine, overall symptoms of ADHD were improved as measured by the ADHD-RS-IV, in which higher scores reflect greater impairment.
# ADHD-RS-IV, CPT, and CGI-I scores were analyzed separately for those subjects whose baseline score was >40, indicating greater impairment. Twenty-two subjects had baseline ADHD-RS-IV total scores >40.
# 5-HT1A = target: T1, 5-HT1A (Homo sapiens, UniProt P08908); conditions: Schipper et al.; cited from earlier work
# T1 sequence (P08908 1-422): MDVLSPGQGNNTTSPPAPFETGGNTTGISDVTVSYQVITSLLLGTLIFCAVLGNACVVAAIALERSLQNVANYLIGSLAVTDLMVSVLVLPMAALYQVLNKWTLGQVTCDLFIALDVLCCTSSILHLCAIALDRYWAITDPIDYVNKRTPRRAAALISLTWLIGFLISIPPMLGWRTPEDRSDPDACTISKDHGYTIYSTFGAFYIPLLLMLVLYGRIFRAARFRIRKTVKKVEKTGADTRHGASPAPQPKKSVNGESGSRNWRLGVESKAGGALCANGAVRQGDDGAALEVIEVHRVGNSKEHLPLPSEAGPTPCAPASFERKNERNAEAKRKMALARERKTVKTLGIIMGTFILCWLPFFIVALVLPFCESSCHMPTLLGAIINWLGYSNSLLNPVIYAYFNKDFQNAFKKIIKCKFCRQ
# dopamine receptors = conditions: Schipper et al.; read-out: Ki (affinity for dopamine receptors); cited from earlier work
# [2] = 5 mg/day oral, 14 days, all patients N = 38
# [3] = 5 mg/day oral, all patients N = 38
# [4] = 10 mg/day oral, 14 days, all patients N = 37
# [5] = 10 mg/day oral, all patients N = 37
# [6] = subjects with baseline score >40 (more severe ADHD), 5 mg/day, 14 days
smiles,measurement,setting,value
"c1cc2c(c(N3CCNCC3)c1)OCCO2 [Eltoprazine, 1-(2,3-dihydro-1,4-benzodioxanyl-5-yl) piperazine]",Peak of responding,mice,sharpens the peak of responding
same,Spread of the response curve,mice,significantly reduces the spread
same,Peak of responding,mice; listed as eltoprazine,sharpened the peak of responding
same,Effect following chronic administration,mice; chronic administration,no loss of effect
same,"ADHD-RS-IV Inattention subscale, Post Treatment Score","[1]; 5 mg/day oral (2.5 mg bid), 14 days, all patients N = 38",14.5
same,"ADHD-RS-IV Inattention subscale, Baseline Score","[1]; 5 mg/day oral (2.5 mg bid), all patients N = 38",23.8
same,"ADHD-RS-IV Hyperactivity subscale, Change from Baseline",[1]; [2],−5.9
same,"ADHD-RS-IV Hyperactivity subscale, Change from Baseline (percent decrease)",[1]; [2],47%
same,"ADHD-RS-IV Hyperactivity subscale, Post Treatment Score",[1]; [2],6.6
same,"ADHD-RS-IV Impulsivity subscale, Change from Baseline",[1]; [2],−2.7
same,"ADHD-RS-IV Impulsivity subscale, Change from Baseline (percent decrease)",[1]; [2],44%
same,"ADHD-RS-IV Impulsivity subscale, Post Treatment Score",[1]; [2],3.4
same,"ADHD-RS-IV Inattention subscale, Change from Baseline",[1]; [2],−9.4
same,"ADHD-RS-IV Inattention subscale, Change from Baseline (percent decrease)",[1]; [2],39%
same,"ADHD-RS-IV Total score, Change from Baseline",[1]; [2],−17.9
same,"ADHD-RS-IV Total score, Change from Baseline (percent decrease)",[1]; [2],(42%)
same,"ADHD-RS-IV Total score, Post Treatment Score",[1]; [2],24.5
same,"ADHD-RS-IV Total score, Change from Baseline (percent decrease)","[1]; 5 mg/day oral, 14 days, all patients N = 38, listed as eltoprazine",42%
same,"ADHD-RS-IV Hyperactivity subscale, Baseline Score",[1]; [3],12.5
same,"ADHD-RS-IV Impulsivity subscale, Baseline Score",[1]; [3],6.1
same,"ADHD-RS-IV Total score, Baseline Score",[1]; [3],42.4
same,"ADHD-RS-IV Inattention subscale, Post Treatment Score","[1]; 10 mg/day oral (5 mg bid), 14 days, all patients N = 37",14.8
same,"ADHD-RS-IV Inattention subscale, Baseline Score","[1]; 10 mg/day oral (5 mg bid), all patients N = 37",23.8
same,"ADHD-RS-IV Hyperactivity subscale, Change from Baseline",[1]; [4],−5.5
same,"ADHD-RS-IV Hyperactivity subscale, Change from Baseline (percent decrease)",[1]; [4],43%
same,"ADHD-RS-IV Hyperactivity subscale, Post Treatment Score",[1]; [4],7.2
same,"ADHD-RS-IV Impulsivity subscale, Change from Baseline",[1]; [4],−2.9
same,"ADHD-RS-IV Impulsivity subscale, Change from Baseline (percent decrease)",[1]; [4],47%
same,"ADHD-RS-IV Impulsivity subscale, Post Treatment Score",[1]; [4],3.2
same,"ADHD-RS-IV Inattention subscale, Change from Baseline",[1]; [4],−9.0
same,"ADHD-RS-IV Inattention subscale, Change from Baseline (percent decrease)",[1]; [4],38%
same,"ADHD-RS-IV Total score, Change from Baseline",[1]; [4],−17.4
same,"ADHD-RS-IV Total score, Change from Baseline (percent decrease)",[1]; [4],(41%)
same,"ADHD-RS-IV Total score, Post Treatment Score",[1]; [4],25.3
same,"ADHD-RS-IV Total score, Change from Baseline (percent decrease)","[1]; 10 mg/day oral, 14 days, all patients N = 37, listed as eltoprazine",41%
same,"ADHD-RS-IV Hyperactivity subscale, Baseline Score",[1]; [5],12.8
same,"ADHD-RS-IV Impulsivity subscale, Baseline Score",[1]; [5],6.1
same,"ADHD-RS-IV Total score, Baseline Score",[1]; [5],42.7
same,"Selective action on ADHD symptoms (inattention, hyperactivity, impulsivity)",[1]; human clinical study in patients with ADHD,predominantly on inattention and hyperactivity and to a lesser degree impulsivity; also recorded: greater activity treating hyperactivity and inattention compared to impulsivity
same,"ADHD-RS-IV hyperactivity subscale score, decrease from baseline (improvement)",[1]; [6],56%
same,"ADHD-RS-IV impulsivity subscale score, decrease from baseline (improvement)",[1]; [6],55%
same,"ADHD-RS-IV inattention subscale score, decrease from baseline (improvement)",[1]; [6],54%
same,"ADHD-RS-IV total score, decrease from baseline",[1]; [6],55%
same,Binding affinity for 5-HT1A,5-HT1A,roughly equipotent affinity
same,Ki,dopamine receptors,> 1000 nM
